Each structure is given as a SMILES string. Where “and” joins values, the source holds several entries; their conditions need not be identical. Equal values may be shown once. Entries after “also recorded” stand apart in the source; their conditions may differ.

Experiment [1] concerns CT-26 colon carcinoma tumors. In words: CT-26 syngeneic mouse model of colon cancer, i.p. dosing (Examples 1-4). The format is in vivo. Conditions: for tumor growth inhibition over time: TLR4 agonist 4, 20, 100 ug per mouse i.p. biweekly, vs vehicle (2% glycerol); for survivability: TLR4 agonist i.p. biweekly, vs vehicle.
Experiment [2] deals with CT-26 colon carcinoma tumors. In words: In vivo anti-tumor efficacy in murine CT-26 colon carcinoma syngeneic solid tumor model (Example 5, Studies 1-4, 6, 7): tumor growth and survival. Set-up: species or system mouse. Conditions: for tumor growth inhibition vs control Group 5: 12 days. As to the method: The in vivo anti-tumor efficacy of the TLR4 agonist (CRX601) was assessed in the murine CT-26 colon carcinoma syngeneic solid tumor model as a monotherapy and in combination with a rate anti-mouse OX40 antibody clone OX86. Seven to eight week old female Balb/c mice (BALB/cAnNCrl, Charles River) were used in these studies. Murine CT-26 colon carcinoma cells (ATCC catalog number CRL-2638 lot#59227052) were cultured in RPMI growth medium supplemented with 10% fetal bovine serum (FBS) in a humidified 37° C. incubator with 5% CO2. CT-26 cells cultured in logarithmic growth were harvested from tissue culture flasks and centrifuged for 5 minutes at 450×g at 4° C. […] to pellet cells. The supernatant was discarded, and cells were washed in ice cold phosphate buffered saline (PBS) without calcium and magnesium and centrifuged again for 5 minutes at 450×g at 4° C. […] to pellet cells. The cells were resuspended in sterile RPMI media without FBS and adjusted to a cell concentration of 500,000 cells/ml. 100 μl of the cell stock was implanted via subcutaneous injection into the right flank of each Balb/c mouse. After ten or eleven days when the average tumor size reached approximately 100 mm^3, mice were randomized into study cohorts according to tumor size and the first treatment dose was given. The TLR4 agonist (CRX601) or vehicle was dosed via a systemic intravenous or direct intratumoral injection as indicated. The CRX-601 vehicle used for intravenous and intratumoral dosing was […] where indicated. For CRX-601 liposomal intratumoral dosing, a DOPC/CHOL liposome prepared by GSK Lot #1783-157-B was used. The rat anti-mouse OX40 receptor antibody (clone OX86) (expressed and purified in-house from the rat hybridoma Grits ID 50776, BP232 2013) or Rat IgG1 isotype control antibody (BioXCell catalog # BE0088) was dosed via an intraperitoneal injection given twice per week for a total of six doses. Caliper measurements were taken three times per week to assess tumor growth, and mice with tumors <2,000 mm^3 were maintained on study from 30 up to approximately 115 days. Mice with tumors >2,000 mm^3 for 2 consecutive measurements or mice with tumors which formed open ulcers were removed from the study. Tumor volume was calculated using the formula (0.52)×(Length)×(Width^2). In studies 6 and 7, tumor-free mice were re-challenged with CT-26 tumor cells as described above, on the opposite flank from the original inoculation site and tumor growth was monitored, as described above. All studies were conducted in accordance with the GSK Policy on the Care, Welfare and Treatment of Laboratory Animals and were reviewed by the Institutional Animal Care and Use Committee at GSK.
For studies 1-4, to determine significance of tumor growth inhibition, tumor volumes at 11 (study 1), 15 (studies 2 and 3), or 19 (study 4) days after first dose were compared between the different treatment groups. Prior to the analysis, tumor volumes were natural log transformed due to the inequality of variance in the different treatment groups. ANOVA followed by pair-wise comparison was then carried out on the log transformed data. SAS 9.3 and R 3.0.2 analysis software was used. Kaplan-Meier (KM) method was carried out to estimate the survival probability of different treatment groups at a given time. The event for survival analysis was tumor volume of 2000 mm^3 or tumor ulceration, whichever came first. The exact time to cut-off volume was estimated by fitting a linear line between log tumor volume and day of two observations, the first observation that exceed the cut-off volume and the one observation that immediately preceded the cut-off volume. The median time to endpoint and its corresponding 95% confidence interval was calculated. Whether or not KM survival curves were statistically different between any two groups was then tested by log-rank test. […]

For a further experiment, the system named is CT-26 tumor cells. In words: CT-26 tumor re-challenge of tumor-free mice (Studies 6 and 7). The format is in vivo, mouse. Conditions: vs naive control mice. As to the method: The in vivo anti-tumor efficacy of the TLR4 agonist (CRX601) was assessed in the murine CT-26 colon carcinoma syngeneic solid tumor model as a monotherapy and in combination with a rate anti-mouse OX40 antibody clone OX86. Seven to eight week old female Balb/c mice (BALB/cAnNCrl, Charles River) were used in these studies. Murine CT-26 colon carcinoma cells (ATCC catalog number CRL-2638 lot#59227052) were cultured in RPMI growth medium supplemented with 10% fetal bovine serum (FBS) in a humidified 37° C. incubator with 5% CO2. CT-26 cells cultured in logarithmic growth were harvested from tissue culture flasks and centrifuged for 5 minutes at 450×g at 4° C. for ten minutes to pellet cells. The supernatant was discarded, and cells were washed in ice cold phosphate buffered saline (PBS) without calcium and magnesium and centrifuged again for 5 minutes at 450×g at 4° C. for ten minutes to pellet cells. The cells were resuspended in sterile RPMI media without FBS and adjusted to a cell concentration of 500,000 cells/ml. […] Tumor volume was calculated using the formula (0.52)×(Length)×(Width^2). In studies 6 and 7, tumor-free mice were re-challenged with CT-26 tumor cells as described above, on the opposite flank from the original inoculation site and tumor growth was monitored, as described above. […]

The next experiment deals with TNF alpha and IL-12p70. In words: Multiplex cytokine analysis of plasma from CT-26 mice (Study 5). As to conditions: CRX-601 10 ug, OX-86, or both. The format is in vivo, mouse. As to the method:
Tumors, blood and tissues were harvested from CT-26 mice on day 0, day 1 and day 8 after first CRX-601 dosing. Mouse white blood cells and dissociated tumor single cells were stained freshly with surface or intracellular staining antibodies for multicolor flow cytometry analysis for immunephenotyping. Multiplex cytokine analysis was performed using mouse plasma samples from the same study.
Results are the mean of five animals per cohort.

Experiment [3] deals with OX40 expression on human PBMCs. Put plainly: In vitro human PBMC assay, OX40 expression by flow cytometry. The format is cell-based. Conditions: 24 hours, 0.01 μg/ml-1,000 μg/ml. How it is done:
In vitro human peripheral blood mononuclear cell (PBMC) assay was performed to assess the effect of CRX601 on OX40 expression. Freshly isolated human PBMCs were checked for viability and were cultured in AIM-V serum free media at a density of two million cells per well in a 24-well non tissue culture treated plate. PBMCs were stimulated with a dose concentration (0.01 μg/ml-1,000 μg/ml, including a vehicle blank) of CRX-601 for 24 hours. By the end of incubation, cells were collected for flow cytometry assessment of OX40 expression.
A general note: Flow cytometry measures light scatter and fluorescence of single cells or particles in a stream.

[4] abbreviates: Study 1, 50 ug intratumoral, day 42.
[5] abbreviates: Study 2, 100 ug intravenous, day 32.

`CCCCCCCCCCC[C@H](CC(=O)N[C@H]1[C@H](OC[C@H](NC(=O)C[C@@H](CCCCCCCCCCC)OC(=O)CCCCCCCCC)C(=O)O)O[C@H](CO)[C@@H](OP(=O)(O)O)[C@@H]1OC(=O)C[C@@H](CCCCCCCCCCC)OC(=O)CCCCCCCCC)OC(=O)CCCCCCCCC` [CRX-527]: in experiment [1], the “tumor growth inhibition over time” value is “inhibited tumor growth in a dose-dependent manner; also recorded: dose-dependent anti-tumor activity” and the survivability entry is “Dose dependence was also seen in the survivability”.

Take `CCCCCCCCCCC[C@H](CC(=O)N[C@H]1[C@H](OC[C@H](NC(=O)C[C@@H](CCCCCCCCCCC)OCCCCCCCCCC)C(=O)O)O[C@H](CO)[C@@H](OP(=O)(O)O)[C@@H]1OC(=O)C[C@@H](CCCCCCCCCCC)OCCCCCCCCCC)OCCCCCCCCCC` [CRX-601]: in experiment [1], the “tumor growth inhibition over time” value is listed as “inhibited tumor growth in a dose-dependent manner; also recorded: dose-dependent anti-tumor activity”. For the same compound, the survivability entry in experiment [1] is “Dose dependence was also seen in the survivability”. Also, the “tumor-free mice among mice remaining on study” value is listed as “single mouse remaining in the 10 μg group was tumor-free” in experiment [2] (Study 1, 10 ug intratumoral, day 42); “Three of the four” in experiment [2] (setting [4]); “One of the three” in experiment [2] (setting [5]). Also, the “tumor growth inhibition vs vehicle” value is listed as “statistically significant” in experiment [2] (Study 1, 10 ug/mouse intratumoral twice per week x6, 11 days after initial dose); “statistically significant” in experiment [2] (Study 1, 50 ug/mouse intratumoral single dose, 11 days after initial dose); “statistically significant” in experiment [2] (Study 2, 10 ug/mouse intravenous twice per week x6, 15 days after initial dose); “statistically significant” in experiment [2] (Study 2, 100 ug/mouse intravenous single dose, 15 days after initial dose); “did not show statistically significant tumor growth inhibition” in experiment [2] (Study 3, CRX-601 10 ug/mouse iv once per week x3, alone, 15 days after first dose); “did not show statistically significant tumor growth inhibition” in experiment [2] (Study 3, CRX-601 25 ug/mouse iv once per week x3, alone, 15 days after first dose). Also, in experiment [2] (setting [4]), the “tumor volume of remaining mouse not tumor-free” value is on record as 854.19 mm^3. In addition, the “increase in survival vs vehicle” value is “statistically significant” in experiment [2] (Study 1, 50 ug intratumoral, day 42 post tumor cell inoculation) and “statistically significant increase” in experiment [2] (Study 2, 100 ug intravenous, day 32 post tumor cell inoculation). Also, the “anti-tumor activity (tumor growth inhibition over time)” value in experiment [2] (Study 1, intratumoral 0.1, 1, 10 ug twice per week x6 or 50 ug single dose) is reported as “dose-dependent anti-tumor activity”; in experiment [2] (Study 2, intravenous 1, 10 ug twice per week x6 or 100 ug single dose), “dose-dependent anti-tumor activity”. Besides, the “tumor volume of single remaining mouse” value in experiment [2] (Study 2, 10 ug intravenous, day 32) came to 188.0 mm^3. Also, in experiment [2] (setting [5]), the “tumor volumes of remaining mice not tumor-free” value was 1500.49 mm^3 and 962.61 mm^3. For the same compound, the “anti-tumor activity (tumor volume over time)” value in experiment [2] (Study 4, OX-86 25 ug/mouse twice per week x6, CRX-601 25 ug/mouse iv 1x/week x3, alone or combined) was “Anti-tumor activity was observed”. Moreover, the “mice remaining tumor-free at study end” value in experiment [2] (Study 4, day 111, 25 ug/mouse each agent, monotherapy arms with Rat IgG1 or vehicle, groups of 10) is “two”. Also, the “tumor growth inhibition vs control Group 5” value in experiment [2] (Study 6, CRX-601 25 ug intratumoral 1x/week x3 + Rat IgG1 (Group 6), 0.5% glycerol/4% dextrose) is given as “did not show statistically significant tumor growth inhibition”; in experiment [2] (Study 7, CRX-601 25 ug intratumoral, DOPC/CHOL liposomal formulation + Rat IgG1 (Group 7)), “statistically significant”. Besides, the “tumor growth inhibition vs control Group 1” value in experiment [2] (Study 6, CRX-601 25 ug iv 1x/week x3 + Rat IgG1 (Group 2), 0.5% glycerol/4% dextrose, 12 days after first dose) is “did not show statistically significant tumor growth inhibition”; in experiment [2] (Study 7, CRX-601 25 ug iv (0.5% Glycerol/4% dextrose) + Rat IgG1 (Group 2), 12 days after initial dose), “statistically significant”. Besides, in experiment [2] (Study 7, CRX601 25 ug IV alone (Group 2) or with OX86 IP (Group 4), day 80), the “mice showing full tumor regressions” value was 5 out of 10. Further, the “increase in survival vs control Group 1” value in experiment [2] (Study 7, CRX601 monotherapy IV (Group 2), 80 days after first dose) was “statistically significant”. Also, the “increase in survival vs control Group 5” value in experiment [2] (Study 7, CRX601 monotherapy intratumoral, DOPC/CHOL liposome formulation (Group 7), 80 days) is on record as “statistically significant”. Also, the “mice fully regressed and tumor-free” value in experiment [2] (Study 7, intratumoral liposomal arms: Group 8 combination, Group 6 OX86, Group 7 CRX601, day 80, groups of 10) is given as 2 mice. For the same compound, the “tumor growth after CT26 re-challenge of tumor-free mice” value is “persistent anti-tumor memory immunity” with CT-26 tumor cells (Study 6, re-challenge on day 68) and “persistent anti-tumor memory” with CT-26 tumor cells (Study 7, re-challenge on day 80). In addition, in the experiment on TNF alpha and IL-12p70 (1 and 8 days post dosing), the TNF alpha entry is given as “increase”. For the same compound, the IL-12p70 entry in the experiment on TNF alpha and IL-12p70 (only detectable at 8 days post dosing) is “increase”. In addition, in experiment [3], the “OX40 expression on dendritic cells” value is recorded as “quick upregulation of OX40 receptor expression”. Moreover, the “OX40 expression on human CD4+ T cells” value in experiment [3] was “quick upregulation of OX40 receptor expression”. Further, the “OX40 expression on monocytes” value in experiment [3] was “quick upregulation of OX40 receptor expression”.

(Values after patent US20170275371A1, “Methods Of Treatment” (GlaxoSmithKline Intellectual Property Development Limited, priority 2015, published 2017).)
